From patent US6855697B1, “Troxerutin with a high content of trihydroxyethylrutoside and process for its preparation” (Negma-Lerads, priority 1998, dated 2005)
“Also recorded” adds a separate entry of the source.

System: red blood cell aggregation
Assay: Ex vivo inhibition of red blood cell aggregation on human blood
Assay type: cell-based
From the text: This difference in efficacy was confirmed by the superiority of the enriched troxerutin according to the invention (trihydroxyethylrutoside content in the region of 95%) compared with commercially available troxerutins (content in the region of 84%). The advantage of decreasing the aggregation of red blood cells lies in a reduction in the total blood viscosity, and consequently in better fluidity of the blood. This property is manifested by an increase in the venous return and in the microcirculatory flow rate (increase in the density of the infused capillaries).

SMILES: C[C@@H]1O[C@@H](OC[C@H]2O[C@@H](Oc3c(-c4ccc(OCCO)c(OCCO)c4)oc4cc(OCCO)cc(OCCO)c4c3=O)[C@H](O)[C@@H](O)[C@@H]2O)[C@H](O)[C@H](O)[C@H]1O [tetrahydroxyethyl derivative, 5,7,3′,4′-tetrahydroxyethylrutoside, reference compound]
- Inhibition of red blood cell aggregation: significantly improved

SMILES: C[C@@H]1O[C@@H](OC[C@H]2O[C@@H](Oc3c(-c4ccc(OCCO)c(OCCO)c4)oc4cc(OCCO)cc(O)c4c3=O)[C@H](O)[C@@H](O)[C@@H]2O)[C@H](O)[C@H](O)[C@H]1O [trihydroxyethyl derivative, 7,3′,4′-trihydroxyethylrutoside]
- Inhibition of red blood cell aggregation: significantly improved; also recorded: more effective than the tetrahydroxyethyl derivative
